In PMC11587516 (ACS Chemical Neuroscience, 2024):

What was measured:
[1] = test system: SH-SY5Y neuroblastoma cells; assay: SH-SY5Y viability, MTS assay, 72 h; type: cell-based, human; details: 0.1-100 µM
Excerpt: OC(=O)[C@H]1CNCC[C@@H]1S OC(=O)CCCCCCN1C=CN=C1
OC(=O)C1CCNCC1 N[C@]12C[C@H]1[C@@H](CC2)C(O)=O
OC(=O)C1=CCNCC1 N[C@H]1C[C@@H]1CC(O)=O
O[C@@H]1CNCC[C@H]1C(O)=O N[C@@H]1C[C@@H]1CC(O)=O
OC(=O)CCCC1=NC=CN1 N[C@H]1C[C@H]1CC(O)=O
OC(=O)\C=C\C1=NC=CN1 NC[C@H]1C[C@H]1C(O)=O
OC(=O)\C=C\C1=CNC=N1 NC[C@@H]1C[C@@H]1C(O)=O
OC(=O)\C=C\C1=CN=CN1 NC[C@@H]1C[C@H]1C(O)=O
OC(=O)CCC1=CNC=N1 NC[C@H]1C[C@@H]1C(O)=O
OC(=O)CCC1=CN=CN1 NC1=CC=C(C=N1)C(O)=O
OC(=O)CCN1C=CN=C1 NC1=NC=C(C=N1)C(O)=O
OC(=O)CCCC1=NC=CN1 NC(=N)N1CCC(CC1)C(O)=O
S2. IC50 determination at GAT3 stable GAT3-CHO, compound 9
Figure S1. IC 50 determination for compound 9. Data represent one of three independent experiments, each performed in three technical replicates.
S3. […]
The influence of compound 9 on viability of SH-SY5Y neuroblastoma cells was determined using Aqueous Non-Radioactive Cell Proliferation Assay. […] Upon adding MTS and following 2h incubation, cell viability was calculated and […]
The effect of compound 9 on viability and proliferation of SH-SY5Y was determined with CellTiter 96® Aqueous Non-Radioactive Cell Proliferation Assay (MTS, Promega, Madison, WI, USA). […] Next MTS was added in fresh medium and after 2h of incubation the absorbance was measured at 490 nm using a microplate reader EnSpire (PerkinElmer, Waltham, MA USA). All results were shown as mean ± SD calculated from two independent experiments. […]

[2] = test system: normal human astrocytes (NHA); assay: WST-1 viability and proliferation assay on normal human astrocytes; type: cell-based; details: 1–100 μM in culture medium; 24 and 48 h
Protocol: Taking into account the presence of BGT1 and GAT3 transporters in astrocytes, we studied the effect of compound 9 on astrocyte viability, proliferation, and homeostasis. Normal human astrocytes (NHA) were treated with 1–100 μM compound 9 in a culture medium. The WST-1 assay was used to determine the number of metabolically active cells after 24 and 48 h of incubation. […] In the next step, a higher concentration (500 μM) of the compound and a longer incubation time (72 h) were applied, and the cells were examined by phase-contrast microscopy. […] Considering the results shown in Figure 6, compound 9 was not cytotoxic toward human astrocytes under in vitro culture conditions.
Gibco Human Astrocytes (Thermo Fisher Scientific) were maintained in a humidified 5% CO2 incubator at 37 °C. The cells were cultured in Gibco Astrocyte Medium (DMEM with GlutaMAX, N-2 Supplement, and OneShot Fetal Bovine Serum) supplemented with penicillin G (100 U/mL), neomycin (10 μg/mL), and amphotericin B (0.25 μg/mL).
The effect of compound 9 on cell viability and cell proliferation was evaluated using a WST-1 assay (Roche GmbH, Mannheim, Germany) based on the cleavage of the WST-1 reagent into formazan by mitochondrial dehydrogenases in metabolically active (viable) cells. […] The absorbance was measured at 440 and 650 nm using a microplate reader Infinite 200 PRO (TECAN).

## NC12CC(C(=O)O)(C1)C2 [Compound 9]
[1]
  impact on SH-SY5Y viability: no impact
[2]
  effect on astrocyte survival and proliferation (WST-1): no effect on astrocyte survival and proliferation
